Values belong to the molecule of their own block, whether it stands above or below them.
Columns and labels:
[1] = Pharmacokinetic study; format: in vivo; conditions: rat, plasma; rats, oral, 1-10 mg/kg
Description: For the intravenous route and the oral route, the compound was formulated in an aqueous solution containing 5% DMSO+95% hydroxypropyl-β-cyclodextrin. Test animals were administered orally at 1-10 mg/kg and intravenously at 1-5 mg/kg. Each group included 3 rats. About 0.2 mL of blood was collected by jugular vein puncture with heparin sodium anticoagulant at the following time points: 0.083 h, 0.25 h, 0.5 h, 1 h, 2 h, 4 h, 6 h, 8 h, 10 h and 24 h. Plasma was separated by centrifugation at 5000-13000 rpm for 10 min within 1 hour after collecting the blood sample, and the plasma sample was analyzed on LC-MS/MS.
The pharmacokinetic parameters were calculated using Phoenix WinNonlin 7.0 based on blood drug concentration data at different time points to provide parameters such as AUC0-t, AUC0-∞, MRT0-∞, Cmax, Tmax, and T1/2.

[2] = target: T1, humanether-a-go-go related gene (hERG) channels (Homo sapiens, UniProt Q12809); assay: hERG test, patch clamp in HEK293 cells; format: cell-based; conditions: HEK293 cells expressing hERG, tail current
T1 construct: expressed in transfected cells; host or cells: HEK293
Excerpt: For the purpose of evaluating the risk of prolonged QT interval in ECG of the compound according to the present invention, HEK293 cells expressing humanether-a-go-go related gene (hERG) channels were used to study the effect of the compound according to the present invention on the delayed rectifier K+ current (Ikr) playing an important role in ventricular repolarization.
The cells are maintained at −80 mV using a fully automatic patch clamp system (patch clamp PC-505B (WARNER instruments)) through a fully automatic patch clamp method, and then depolarized to 40 mV with a square wave lasting 4 s and hyperpolarized to −40 mV with a square wave lasting 2 s to obtain the hERG tail current. The maximum current induced by the second square wave was detected. After this current was stabilized, the test compound was perfused. After the reaction was stabilized, the blocking strength was calculated.
Extracellular fluid (mM): NaCl, 137; KCl, 4; CaCl2, 1.8; MgCl2, 1; HEPES, 10; glucose 10; pH 7.4 (NaOH titration). Intracellular fluid (mM): K Aspartate, 130; MgCl2, 5; EGTA 5; HEPES, 10; Tris-ATP 4; pH 7.2 (KOH titration).

[3] = tested on: rat CIA model; assay: Arthritis index (AI) of extremities in rat CIA model; conditions: CIA rats; for Arthritis index/Day: score 0-16;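 as to all read-outs here: rats immunized with type II collagen plus complete Freund's adjuvant on day 0, boosted day 7, groups of 8, each paw graded 0-4 for swelling or redness, higher means worse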
Description: (§1) Lewis rats (female, 10-12 weeks old) were obtained from Beijing Vital River Laboratory Animal Technology Co., Ltd. The rats were on a light and dark alternation for 12 h, and the environment was kept at a temperature of 23±2° C. and a humidity of 40-70%.
(§2) Type II collagen solution (2 mg/mL) was prepared with 0.05 M acetic acid solution to allow to be fully dissolved, and placed overnight in the dark at 4° C. During the test, 2 mg/mL type II collagen (C II) solution and 4 mg/mL complete Freund's adjuvant (CFA) solution were mixed in equal volumes under ice bath conditions to fully emulsify. On day 0, an emulsion prepared by mixing equal volumes of C II (2 mg/mL) and CFA (4 mg/mL) was injected intracutaneously into the base of the tail of experimental rats for primary immunization, and on day 7, secondary booster immunization was performed.
(§3) The therapeutic effect of the test compound was tested in a rat CIA model. The rats were randomly divided into groups with 8 animals in each group. All animals were immunized on day 0 and boosted on day 7.
Foot volume was scored for the swelling of four toes at the same time, the score for each foot was 0-4, and the highest score for each rat was 16. 0—no swelling, normal appearance; 1—mild swelling or redness of the ankle joint, wrist joint or finger joint; 2—moderate swelling or redness of the ankle joint, wrist joint or finger joint; 3—severe swelling or redness of the ankle joint, wrist joint or finger joint; 4—very severe swelling or redness of the ankle joint, wrist joint or finger joint.

[4] = Stability of liver microsomes; format: in vitro ADME; conditions: 10 umol/L
Description: Liver microsomes belonging to different species (human, rat) were respectively reacted with the compound according to the present invention for a certain period of time, and the residual rate was calculated by comparing a reacted sample with an unreacted sample, and the extent to which the compounds according to the present invention were metabolized by the liver was evaluated.

[5] = tested on: rat CIA model; assay: Hindfoot foot volume in rat CIA model; format: in vivo, Lewis rats; conditions: CIA rats; for Foot volume (ml)/Day: hindfoot
Description: as §1, §2, §3
Therefore, the differences in body weight and foot volume after the onset of arthritis compared with the negative group, respectively, can be used to evaluate the therapeutic effect in the rat model. The experimental data were expressed as Mean±SEM; the data between the two groups was tested by unpaired t-test and p<0.05 was considered as a significant difference.

[6] = 2 mg/kg oral gavage once daily for 2 w, day 0
[7] = 2 mg/kg oral gavage once daily for 2 w, day 8
[8] = 2 mg/kg oral gavage once daily for 2 w, day 11
[9] = 2 mg/kg oral gavage once daily for 2 w, day 14
[10] = 2 mg/kg oral gavage once daily for 2 w, day 17
[11] = 2 mg/kg oral gavage once daily for 2 w, day 21
[12] = 2 mg/kg oral gavage once daily for 2 w, day 24
[13] = 2 mg/kg oral gavage once daily for 2 w, day 28
[14] = 3 mg/kg oral gavage once daily for 2 w, day 0
[15] = 3 mg/kg oral gavage once daily for 2 w, day 8
[16] = 3 mg/kg oral gavage once daily for 2 w, day 11
[17] = 3 mg/kg oral gavage once daily for 2 w, day 14
[18] = 3 mg/kg oral gavage once daily for 2 w, day 17
[19] = 3 mg/kg oral gavage once daily for 2 w, day 21
[20] = 3 mg/kg oral gavage once daily for 2 w, day 24
[21] = 3 mg/kg oral gavage once daily for 2 w, day 28
[22] = 5 mg/kg oral gavage once daily for 2 w, day 0
[23] = 5 mg/kg oral gavage once daily for 2 w, day 11
[24] = 5 mg/kg oral gavage once daily for 2 w, day 14
[25] = 5 mg/kg oral gavage once daily for 2 w, day 17
[26] = 5 mg/kg oral gavage once daily for 2 w, day 21
[27] = 5 mg/kg oral gavage once daily for 2 w, day 24
[28] = 5 mg/kg oral gavage once daily for 2 w, day 28
[29] = 10 mg/kg oral gavage once daily for 2 w, day 0
[30] = 10 mg/kg oral gavage once daily for 2 w, day 8
[31] = 10 mg/kg oral gavage once daily for 2 w, day 11
[32] = 10 mg/kg oral gavage once daily for 2 w, day 14
[33] = 10 mg/kg oral gavage once daily for 2 w, day 17
[34] = 10 mg/kg oral gavage once daily for 2 w, day 21
[35] = 10 mg/kg oral gavage once daily for 2 w, day 24
[36] = 10 mg/kg oral gavage once daily for 2 w, day 28

T1 sequence (Q12809 whole entry): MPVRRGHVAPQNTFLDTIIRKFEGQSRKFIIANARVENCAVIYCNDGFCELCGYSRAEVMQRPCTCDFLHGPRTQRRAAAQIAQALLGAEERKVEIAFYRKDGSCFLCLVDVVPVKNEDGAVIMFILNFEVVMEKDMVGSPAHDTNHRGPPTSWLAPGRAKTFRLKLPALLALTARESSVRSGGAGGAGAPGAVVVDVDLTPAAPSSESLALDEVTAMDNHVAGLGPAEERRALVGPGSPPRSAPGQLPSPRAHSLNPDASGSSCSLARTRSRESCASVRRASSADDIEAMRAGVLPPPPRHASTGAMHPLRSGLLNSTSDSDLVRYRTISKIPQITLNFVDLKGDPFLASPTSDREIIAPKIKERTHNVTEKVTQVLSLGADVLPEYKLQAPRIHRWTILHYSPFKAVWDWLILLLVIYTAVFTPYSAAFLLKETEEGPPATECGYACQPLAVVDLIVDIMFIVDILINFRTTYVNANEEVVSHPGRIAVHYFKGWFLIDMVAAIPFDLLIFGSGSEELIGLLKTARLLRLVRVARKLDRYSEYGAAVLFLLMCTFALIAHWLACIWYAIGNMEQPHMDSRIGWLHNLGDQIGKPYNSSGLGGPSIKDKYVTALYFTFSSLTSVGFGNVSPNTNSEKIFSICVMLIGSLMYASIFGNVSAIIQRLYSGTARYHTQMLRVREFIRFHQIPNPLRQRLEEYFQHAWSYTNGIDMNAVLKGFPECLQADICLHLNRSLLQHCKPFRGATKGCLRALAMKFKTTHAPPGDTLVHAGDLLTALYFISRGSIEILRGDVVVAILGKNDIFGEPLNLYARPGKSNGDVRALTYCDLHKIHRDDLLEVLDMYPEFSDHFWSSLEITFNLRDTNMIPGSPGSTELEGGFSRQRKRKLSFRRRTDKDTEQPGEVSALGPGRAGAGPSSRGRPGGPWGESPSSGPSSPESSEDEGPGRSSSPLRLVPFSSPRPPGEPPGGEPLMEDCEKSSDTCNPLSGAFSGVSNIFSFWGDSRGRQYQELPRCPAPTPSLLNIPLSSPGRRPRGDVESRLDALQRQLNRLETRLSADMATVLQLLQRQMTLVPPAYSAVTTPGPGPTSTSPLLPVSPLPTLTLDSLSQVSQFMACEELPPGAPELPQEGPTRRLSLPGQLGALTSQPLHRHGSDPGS

- AUC [1]: 12 µg·h/mL
- Cmax [1]: 2.63 µg/mL
- half-life [1]: 2.68 h
Compound: O=C(Nc1nc2cccc(-c3ccc(CN4CCS(=O)(=O)CC4)s3)n2n1)C1CC1 [EXP-1]

Compound: O=C(Nc1cn2c(-c3ccc(CN4CCS(=O)(=O)CC4)s3)cccc2n1)[C@H]1C[C@@H]1F (relative stereo) [EXP-3, trans-N-[5-[5-[(1,1-dioxo-1,4-thiazin-4-yl)methyl]-2-thiophene]imidazo[1,2-a]pyridin-2-yl]-2-fluoro-cyclopropylcarboxamide]
- IC50 [2]: > 10 µM
- Arthritis index/Day [3, 6]: 0 ± 0
- Arthritis index/Day [3, 7]: 0 ± 0
- Arthritis index/Day [3, 8]: 0.50 ± 0.33
- Arthritis index/Day [3, 9]: 3.63 ± 0.91
- Arthritis index/Day [3, 10]: 6.25 ± 1.36
- Arthritis index/Day [3, 11]: 9.00 ± 1.24
- Arthritis index/Day [3, 12]: 9.13 ± 1.04
- Arthritis index/Day [3, 13]: 8.63 ± 0.63
- Arthritis index/Day [3, 14]: 0 ± 0
- Arthritis index/Day [3, 15]: 0 ± 0
- Arthritis index/Day [3, 16]: 0.38 ± 0.18
- Arthritis index/Day [3, 17]: 3.75 ± 0.70
- Arthritis index/Day [3, 18]: 6.25 ± 0.75
- Arthritis index/Day [3, 19]: 10.25 ± 0.70
- Arthritis index/Day [3, 20]: 10.88 ± 0.44
- Arthritis index/Day [3, 21]: 9.25 ± 0.45
- Arthritis index/Day [3, 22]: 0 ± 0
- Arthritis index/Day ([3]; 5 mg/kg oral gavage once daily for 2 w, day 8): 0 ± 0
- Arthritis index/Day [3, 23]: 0.63 ± 0.26
- Arthritis index/Day [3, 24]: 3.50 ± 0.76
- Arthritis index/Day [3, 25]: 5.88 ± 1.22
- Arthritis index/Day [3, 26]: 9.00 ± 1.22
- Arthritis index/Day [3, 27]: 9.13 ± 1.04
- Arthritis index/Day [3, 28]: 8.00 ± 0.65
- arthritis index, relative effect on swelling of the extremities in words ([3]; 10 mg/kg): strongest effect on reducing swelling of the extremities
- Arthritis index/Day [3, 29]: 0 ± 0
- Arthritis index/Day [3, 30]: 0 ± 0
- Arthritis index/Day [3, 31]: 0.38 ± 0.38
- Arthritis index/Day [3, 32]: 3.75 ± 0.70
- Arthritis index/Day [3, 33]: 5.00 ± 0.89
- Arthritis index/Day [3, 34]: 6.50 ± 0.50
- Arthritis index/Day [3, 35]: 7.25 ± 0.56
- Arthritis index/Day [3, 36]: 7.25 ± 0.41
- residual rate of the compound in oxidative metabolism ([4]; human liver microsomes): 59.32%
- residual rate of the compound in oxidative metabolism ([4]; rat liver microsomes): 55.3%
- foot volume, relative potency in words ([5]; 10 mg/kg): the most potent and significantly stronger than filgotinib 10 mg/kg
- Foot volume (ml)/Day [5, 6]: 2.603 ± 0.021 mL
- Foot volume (ml)/Day [5, 7]: 2.590 ± 0.027 mL
- Foot volume (ml)/Day [5, 8]: 2.634 ± 0.059 mL
- Foot volume (ml)/Day [5, 9]: 3.648 ± 0.303 mL
- Foot volume (ml)/Day [5, 10]: 4.465 ± 0.261 mL
- Foot volume (ml)/Day [5, 11]: 4.600 mL
- Foot volume (ml)/Day [5, 12]: 4.487 mL
- Foot volume (ml)/Day [5, 13]: 4.181 mL
- Foot volume (ml)/Day [5, 14]: 2.633 ± 0.017 mL
- Foot volume (ml)/Day [5, 15]: 2.624 ± 0.010 mL
- Foot volume (ml)/Day [5, 16]: 2.706 ± 0.037 mL
- Foot volume (ml)/Day [5, 17]: 3.724 ± 0.239 mL
- Foot volume (ml)/Day [5, 18]: 4.759 ± 0.291 mL
- Foot volume (ml)/Day [5, 19]: 4.863 mL
- Foot volume (ml)/Day [5, 20]: 4.754 mL
- Foot volume (ml)/Day [5, 21]: 4.299 mL
- Foot volume (ml)/Day [5, 22]: 2.631 ± 0.017 mL
- Foot volume (ml)/Day [5, 23]: 2.703 ± 0.061 mL
- Foot volume (ml)/Day [5, 24]: 3.684 ± 0.315 mL
- Foot volume (ml)/Day [5, 25]: 4.516 ± 0.302 mL
- Foot volume (ml)/Day [5, 26]: 4.724 mL
- Foot volume (ml)/Day [5, 27]: 4.582 mL
- Foot volume (ml)/Day [5, 28]: 4.176 mL
- Foot volume (ml)/Day [5, 29]: 2.645 ± 0.017 mL
- Foot volume (ml)/Day [5, 30]: 2.613 ± 0.017 mL
- Foot volume (ml)/Day [5, 31]: 2.647 ± 0.075 mL
- Foot volume (ml)/Day [5, 32]: 3.652 ± 0.287 mL
- Foot volume (ml)/Day [5, 33]: 4.249 ± 0.342 mL
- Foot volume (ml)/Day [5, 34]: 4.331 mL
- Foot volume (ml)/Day [5, 35]: 4.125 mL
- Foot volume (ml)/Day [5, 36]: 3.826 mL
